Counter-ions that a name gives are not always drawn. Like-named read-outs stand apart in the source and are kept apart here.

For assay [1], the system named is MCF7 cells (human breast cancer cell line). Briefly: Inhibition of cell proliferation, xCelligence cell index. The class given is cell-based. To be noted: 72 hr post compound treatment, read-out: calculated IC50. An excerpt: (§1) The biological activity of compounds disclosed herein was monitored and profiled using the Real-Time Cell Electronic Sensing (RT-CES®) system from ACEA Biosciences, Inc. The RT-CES system utilizes cell-substrate impedance technology to monitor cellular behavior inside tissue culture wells in a microtiter plate format. The technology features in the integration of molecular and cell biology with microelectronics and is based on the electronic detection of biological assay process. […]
(§2) For measurement of cell-substrate or cell-electrode impedance using RT-CES technology, microelectrodes having appropriate geometries are fabricated onto the bottom surfaces of microtiter plate or similar device, facing into the wells. […] When there are changes to the biological status of the cells analogue electronic readout signals are measured automatically and in real time, and are converted to digital signals for processing and for analysis. In a RT-CES system, a cell index (arbitrary representation of change in impedance) is automatically derived and provided based on measured electrode impedance values. […]
(§3) To quantify cell status based on the measured cell-electrode impedance, a parameter termed Cell Index is derived. Cell Index is a quantitative measure of the status of the cells in an electrode-containing well. […]

For a further assay, the system named is human cancer cell lines. The assay is described as follows: RT-CES / xCelligence profiling over the panel of cell lines. The class given is cell-based.
Description: as §1, §2, §3

For another assay, the system named is A549 cells. The assay is described as follows: Cell-cycle distribution by flow cytometry. It counts as cell-based, human. Particulars: 37 nM, 24 hours, vs DMSO only. Here is the method: In addition, we have also tested the effect of COMPOUND O on cell-cycle using flow Cytometry. Briefly, A549 cells were seeded at a density of 400,000 cells/well in 6-well tissue culture plates. Approximately 24 hours later the cells were treated with 37 nM COMPOUND O and allowed to further incubate for 24 hours. The cells were washed in PBS, trypsinized, counted and fixed in ice-cold 70% methanol and stored at 4° C. The cells were washed with PBS, stained with propidium iodide and kept on ice until flow Cytometry analysis.
(A flow cytometer gives signals particle by particle.)

In assay [2] the test system is MDA-MB-231 cells (human breast cancer cell line). Briefly: Inhibition of cell proliferation, xCelligence cell index. The class given is cell-based. Particulars: 72 hr post compound treatment, read-out: calculated IC50.
Description: as §1, §2, §3

The test system of assay [3] is NIH 3T3 cells (the normal tissue cell line). The assay is described as above. To be noted: Mus musculus, NIH3T3. It counts as cell-based.
Description: as §1, §2, §3

Assay [4] relates to tubulin (colchicine-binding site). The assay is described as follows: Spin column assay with [^3H]colchicine. Particulars: tubulin with [^3H]colchicine and unlabeled competitor, 37° C. 1 h. Here is the method:
Spin column assay. […] The reaction mixtures were incubated at 37° C. for 1 h. The samples were loaded onto Illustra™ MicroSpin™ G-50 columns (GE Healthcare) previously equilibrated with the buffer solution. The columns were placed into 1.5-ml tubes and spun at 750 g for 2 min at room temperature, and radioactivity in the flow-through was analyzed by a scintillation counter.

Take `CCc1ccc(Nc2nc(-c3c(C)nc4sccn34)cs2)cc1` [COMPOUND O, 2-(4-ethylphenyl)amino-4-(6-methylimidazo[2,1-b]thiazol-5-yl)-thiazole monohydrobromide]: the IC50 – broadly, the point on the concentration scale where inhibition reaches its midpoint – was 0.0744 µM in assay [1]; 0.0324 µM in assay [2]; 6 µM in assay [3] (NIH 3T3, 72 hr post compound treatment, read-out: calculated IC50); 6 µM in assay [3] (NIH-3T3, read-out: IC50). In the assay with human cancer cell lines (all tested cancer cell lines), the “IC50 towards all tested cancer cell lines” value is “low nM range”. Further, the “effect on the proliferation of the cancer cell lines” value in the assay on human cancer cell lines (cell lines listed in b189 (FIGS. 4-24)) is on record as “exhibited inhibitory effect”. In addition, in the assay with A549 cells, the “cell population at G2/M phase” value is “increased significantly”. In assay [4], the “amount of [^3H]colchicine in the flow-through” value was “reduced the amount of [^3H]colchicine in the flow-through in a concentration-dependent manner”.

(Values after US20110207751A1, “HETEROCYCLIC COMPOUNDS AND USES AS ANTICANCER AGENTS” (priority 2010, published 2011).)
